In US20090304692A1, “TRIAZINE COMPOUNDS AS PI3 KINASE AND MTOR INHIBITORS” (Wyeth, priority 2008, published 2009):
Where “and” joins values, the source holds several entries; their conditions need not be identical. Equal entries are not always repeated. Where two headings read alike, the source gives them in different places.

Key:
[1] = target: Human mTOR (FLAG-TOR) (Homo sapiens, UniProt P42345); assay: mTOR kinase assay (DELFIA format, purified enzyme); format: biochemical; settings: read-out: IC50 mTOR
Sequence of Human mTOR (FLAG-TOR) (P42345 1360-2549 limits assumed): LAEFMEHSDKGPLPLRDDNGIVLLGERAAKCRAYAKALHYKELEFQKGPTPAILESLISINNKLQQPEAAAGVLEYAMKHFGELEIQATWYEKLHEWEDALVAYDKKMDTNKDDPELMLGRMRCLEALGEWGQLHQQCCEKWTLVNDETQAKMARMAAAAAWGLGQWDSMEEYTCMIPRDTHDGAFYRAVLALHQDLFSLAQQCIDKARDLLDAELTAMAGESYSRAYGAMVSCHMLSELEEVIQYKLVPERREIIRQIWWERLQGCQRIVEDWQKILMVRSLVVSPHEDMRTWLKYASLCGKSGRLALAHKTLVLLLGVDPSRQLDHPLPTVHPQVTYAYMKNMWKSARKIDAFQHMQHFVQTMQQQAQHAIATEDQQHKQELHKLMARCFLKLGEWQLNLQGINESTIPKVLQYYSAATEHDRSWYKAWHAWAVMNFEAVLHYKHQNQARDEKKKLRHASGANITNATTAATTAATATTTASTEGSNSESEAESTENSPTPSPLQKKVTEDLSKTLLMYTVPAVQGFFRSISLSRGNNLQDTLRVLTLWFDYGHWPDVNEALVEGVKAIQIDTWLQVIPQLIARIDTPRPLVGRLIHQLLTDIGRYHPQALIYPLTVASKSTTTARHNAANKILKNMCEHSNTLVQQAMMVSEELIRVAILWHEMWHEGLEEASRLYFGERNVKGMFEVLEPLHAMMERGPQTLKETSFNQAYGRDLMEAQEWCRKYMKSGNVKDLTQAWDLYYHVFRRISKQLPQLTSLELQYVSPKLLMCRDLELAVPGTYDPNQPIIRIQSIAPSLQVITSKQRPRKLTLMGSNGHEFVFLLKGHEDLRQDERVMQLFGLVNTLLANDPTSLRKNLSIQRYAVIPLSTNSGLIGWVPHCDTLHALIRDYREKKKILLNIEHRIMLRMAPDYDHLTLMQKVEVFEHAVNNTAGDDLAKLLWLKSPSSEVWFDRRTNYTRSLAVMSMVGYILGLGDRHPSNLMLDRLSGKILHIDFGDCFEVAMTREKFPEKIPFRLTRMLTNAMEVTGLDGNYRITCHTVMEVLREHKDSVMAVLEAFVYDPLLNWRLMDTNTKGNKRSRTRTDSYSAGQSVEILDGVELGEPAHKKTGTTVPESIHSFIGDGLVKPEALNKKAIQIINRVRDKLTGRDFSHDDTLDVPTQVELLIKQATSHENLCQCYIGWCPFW

[2] = target: PI3K-α (Homo sapiens, UniProt P42336); assay: PI3K-alpha fluorescence polarization assay; settings: read-out: IC50 PI3Kα
Sequence of PI3K-α (P42336 whole entry, species assumed): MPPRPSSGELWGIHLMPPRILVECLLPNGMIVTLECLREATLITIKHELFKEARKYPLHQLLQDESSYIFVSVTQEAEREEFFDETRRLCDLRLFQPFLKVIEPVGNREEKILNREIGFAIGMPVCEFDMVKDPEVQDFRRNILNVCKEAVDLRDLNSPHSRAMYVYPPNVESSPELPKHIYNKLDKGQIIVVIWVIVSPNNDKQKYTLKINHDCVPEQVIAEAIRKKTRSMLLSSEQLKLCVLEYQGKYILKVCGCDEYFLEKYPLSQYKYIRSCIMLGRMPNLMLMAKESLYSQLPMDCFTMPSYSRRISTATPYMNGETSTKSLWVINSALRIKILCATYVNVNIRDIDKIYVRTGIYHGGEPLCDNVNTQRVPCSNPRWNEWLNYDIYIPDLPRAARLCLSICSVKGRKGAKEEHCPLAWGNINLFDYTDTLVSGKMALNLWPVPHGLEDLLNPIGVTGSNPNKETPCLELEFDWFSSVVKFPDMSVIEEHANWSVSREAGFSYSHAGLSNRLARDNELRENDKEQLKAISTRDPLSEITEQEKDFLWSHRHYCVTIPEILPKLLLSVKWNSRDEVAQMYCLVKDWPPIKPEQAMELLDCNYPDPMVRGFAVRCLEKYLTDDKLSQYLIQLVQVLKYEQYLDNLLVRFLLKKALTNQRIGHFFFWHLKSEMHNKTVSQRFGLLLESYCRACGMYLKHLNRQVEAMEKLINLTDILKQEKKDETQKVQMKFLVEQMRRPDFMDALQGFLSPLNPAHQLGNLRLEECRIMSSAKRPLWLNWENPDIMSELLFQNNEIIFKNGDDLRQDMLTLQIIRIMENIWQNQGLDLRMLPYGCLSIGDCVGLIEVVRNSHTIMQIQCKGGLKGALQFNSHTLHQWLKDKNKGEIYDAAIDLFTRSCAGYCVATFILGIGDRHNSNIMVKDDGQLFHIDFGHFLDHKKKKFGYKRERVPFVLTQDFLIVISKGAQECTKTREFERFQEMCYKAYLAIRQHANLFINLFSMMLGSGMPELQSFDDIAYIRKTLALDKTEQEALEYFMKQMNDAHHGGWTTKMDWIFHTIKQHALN
Sequence of PI3K-α (P27986 whole entry partner, species assumed): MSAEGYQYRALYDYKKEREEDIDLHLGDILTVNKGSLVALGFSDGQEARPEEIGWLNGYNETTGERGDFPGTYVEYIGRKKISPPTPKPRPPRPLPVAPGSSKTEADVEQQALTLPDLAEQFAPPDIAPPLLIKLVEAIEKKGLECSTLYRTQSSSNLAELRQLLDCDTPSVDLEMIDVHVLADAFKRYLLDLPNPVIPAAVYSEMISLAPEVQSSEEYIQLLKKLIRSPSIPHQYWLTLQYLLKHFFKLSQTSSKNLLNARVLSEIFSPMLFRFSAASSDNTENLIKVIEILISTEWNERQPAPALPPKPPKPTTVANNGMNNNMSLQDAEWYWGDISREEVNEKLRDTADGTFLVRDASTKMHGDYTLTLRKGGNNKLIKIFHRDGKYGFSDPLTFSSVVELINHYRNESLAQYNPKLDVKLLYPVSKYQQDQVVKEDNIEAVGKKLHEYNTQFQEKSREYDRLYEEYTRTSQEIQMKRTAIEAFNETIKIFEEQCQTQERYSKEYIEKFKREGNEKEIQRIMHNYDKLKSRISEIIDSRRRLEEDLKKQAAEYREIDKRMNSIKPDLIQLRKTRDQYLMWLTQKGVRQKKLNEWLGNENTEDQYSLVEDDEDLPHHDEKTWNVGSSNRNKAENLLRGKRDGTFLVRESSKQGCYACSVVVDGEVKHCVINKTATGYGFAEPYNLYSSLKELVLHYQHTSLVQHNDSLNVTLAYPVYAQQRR

[3] = target: PI3K-γ (Homo sapiens, UniProt P48736); assay: PI3K-gamma fluorescence polarization assay; settings: read-out: IC50 PI3Kγ
Sequence of PI3K-γ (P48736 whole entry, species assumed): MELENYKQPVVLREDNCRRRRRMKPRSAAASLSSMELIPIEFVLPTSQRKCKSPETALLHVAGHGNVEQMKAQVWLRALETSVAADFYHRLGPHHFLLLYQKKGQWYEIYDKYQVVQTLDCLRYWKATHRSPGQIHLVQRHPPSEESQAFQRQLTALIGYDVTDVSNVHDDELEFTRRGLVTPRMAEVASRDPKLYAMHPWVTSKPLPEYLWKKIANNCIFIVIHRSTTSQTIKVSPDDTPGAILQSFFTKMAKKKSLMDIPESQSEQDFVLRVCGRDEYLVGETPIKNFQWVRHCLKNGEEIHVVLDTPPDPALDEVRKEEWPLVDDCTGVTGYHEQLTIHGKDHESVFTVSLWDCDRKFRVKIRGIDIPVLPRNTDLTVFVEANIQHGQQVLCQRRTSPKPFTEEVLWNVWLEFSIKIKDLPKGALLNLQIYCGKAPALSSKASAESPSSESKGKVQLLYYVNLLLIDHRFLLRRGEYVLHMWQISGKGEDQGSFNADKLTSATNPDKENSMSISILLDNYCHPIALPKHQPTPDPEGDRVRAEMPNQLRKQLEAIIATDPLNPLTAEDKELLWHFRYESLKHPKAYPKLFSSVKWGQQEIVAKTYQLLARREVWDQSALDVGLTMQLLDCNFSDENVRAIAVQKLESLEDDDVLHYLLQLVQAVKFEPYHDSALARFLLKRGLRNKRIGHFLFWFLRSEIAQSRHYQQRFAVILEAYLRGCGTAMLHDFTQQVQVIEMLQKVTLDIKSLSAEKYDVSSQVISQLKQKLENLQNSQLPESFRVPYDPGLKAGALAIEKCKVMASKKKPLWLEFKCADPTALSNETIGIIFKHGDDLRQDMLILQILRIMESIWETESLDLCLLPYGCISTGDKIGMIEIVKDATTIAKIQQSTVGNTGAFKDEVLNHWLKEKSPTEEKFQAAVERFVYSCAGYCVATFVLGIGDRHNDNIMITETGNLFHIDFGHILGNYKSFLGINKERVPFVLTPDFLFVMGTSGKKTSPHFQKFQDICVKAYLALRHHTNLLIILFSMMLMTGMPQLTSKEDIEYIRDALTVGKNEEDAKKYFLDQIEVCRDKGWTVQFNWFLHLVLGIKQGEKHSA

O=C(Nc1ccc(-c2nc(N3CCOCC3)nc(N3CCOCC3)n2)cc1)Nc1ccc(C(F)(F)F)cn1 [Example 55, 1-[4-(4,6-dimorpholin-4-yl-1,3,5-triazin-2-yl)phenyl]-3-[5-(trifluoromethyl)pyridin-2-yl]urea]
IC50 [1]: 50 nM
IC50 [2]: 205 nM
IC50 [3]: 1580 nM

Cc1cc(NC(=O)Nc2ccc(-c3nc(N4CCOCC4)nc(N4CC5CCC4CO5)n3)cc2)n(C)n1 (centres unmarked) [Example 808, 1-(1,3-dimethyl-1H-pyrazol-5-yl)-3-{4-[4-morpholin-4-yl-6-(2-oxa-5-azabicyclo[2.2.2]oct-5-yl)-1,3,5-triazin-2-yl]phenyl}urea]
IC50 [1]: 260 nM
IC50 [2]: 381 nM
IC50 [3]: 1260 nM

N-[2-(dimethylamino)ethyl]-N-methyl-4-[({4-[4-morpholin-4-yl-6-(tetrahydro-2H-pyran-4-yl)-1,3,5-triazin-2-yl]phenyl}carbamoyl)amino]benzamide [Example 524]
IC50 [1]: 0.26 nM
IC50 [2]: 0.8 nM
IC50 [3]: 10 nM

O=C(Nc1ccncc1)Nc1ccc(-c2nc(N3CCOCC3)nc(N3CC4CNCC(C3)O4)n2)cc1 [Example 290, 1-{4-[4-morpholin-4-yl-6-(9-oxa-3,7-diazabicyclo[3.3.1]non-3-yl)-1,3,5-triazin-2-yl]phenyl}-3-pyridin-4-ylurea]
IC50 [1]: 150 nM and 145 nM
IC50 [2]: 97 nM
IC50 [3]: 166 nM

COC(=O)c1ccc(NC(=O)Nc2ccc(-c3nc(N4CCCC4)nc(N4CCOCC4)n3)cc2)cc1 [Example 594, methyl 4-({[4-(4-morpholin-4-yl-6-pyrrolidin-1-yl-1,3,5-triazin-2-yl)phenyl]carbamoyl}amino)benzoate]
IC50 [1]: 22 nM
IC50 [2]: 350 nM
IC50 [3]: 744 nM

Cc1ccc(-c2nc(-c3ccc(NC(=O)Nc4ccc(C(=O)N5CCCCC5)cc4)cc3)nc(N3CCOCC3)n2)cc1 [Example 555, 1-{4-[4-(4-methylphenyl)-6-morpholin-4-yl-1,3,5-triazin-2-yl]phenyl}-3-[4-(piperidin-1-ylcarbonyl)phenyl]urea]
IC50 [1]: 405 nM
IC50 [2]: 87.5 nM
IC50 [3]: 378 nM

C[C@@H]1COCCN1c1nc(-c2ccc(NC(=O)Nc3ccc(N4CCC(N(C)C)CC4)cc3)cc2)nc(N2CCOC[C@H]2C)n1 [Example 449, 1-(4-(4,6-bis((R)-3-methylmorpholino)-1,3,5-triazin-2-yl)phenyl)-3-(4-(4-(dimethylamino)piperidin-1-yl)phenyl)urea]
IC50 [1]: 1.9 nM
IC50 [2]: 287 nM
IC50 [3]: 1640 nM

COC(=O)c1ccc(NC(=O)Nc2ccc(-c3nc(NS(=O)(=O)c4ccccc4)nc(N4CCOCC4)n3)cc2)cc1 [Example 789, methyl 4-{[(4-{4-morpholin-4-yl-6-[(phenylsulfonyl)amino]-1,3,5-triazin-2-yl}phenyl)carbamoyl]amino}benzoate]
IC50 [1]: 59 nM
IC50 [2]: 870 nM
IC50 [3]: 1160 nM

1-(3-{[4-(dimethylamino)piperidin-1-yl]carbonyl}phenyl)-3-{4-[4-(4-methylphenyl)-6-morpholin-4-yl-1,3,5-triazin-2-yl]phenyl}urea [Example 579]
IC50 [1]: 120 nM
IC50 [2]: 462 nM
IC50 [3]: 658 nM

C[C@H]1COCCN1c1nc(-c2ccc(NC(=O)Nc3ccncc3)cc2)nc(N2C3CCC2COC3)n1 [Example 829, 1-(4-{4-[(3S)-3-methylmorpholin-4-yl]-6-(3-oxa-8-azabicyclo[3.2.1]oct-8-yl)-1,3,5-triazin-2-yl}phenyl)-3-pyridin-4-ylurea]
IC50 [1]: 520 nM
IC50 [2]: 10.5 nM
IC50 [3]: 188 nM

CN1CCC(NC(=O)Nc2ccc(-c3nc(N4CCOCC4)nc(N4CCOCC4)n3)cc2)CC1 [Example 98, 1-[4-(4,6-dimorpholin-4-yl-1,3,5-triazin-2-yl)phenyl]-3-(1-methylpiperidin-4-yl)urea]
IC50 [1]: 2100 nM
IC50 [2]: 1350 nM
IC50 [3]: 9000 nM

C[C@H]1COCCN1c1nc(-c2ccc(NC(=O)Nc3ccc(C(=O)N(C)CCN(C)C)cc3)cc2)nc(N2C3CCC2COC3)n1 [Example 831, N-[2-(dimethylamino)ethyl]-N-methyl-4-{[(4-{4-[(3S)-3-methylmorpholin-4-yl]-6-(3-oxa-8-azabicyclo[3.2.1]oct-8-yl)-1,3,5-triazin-2-yl}phenyl)carbamoyl]amino}benzamide]
IC50 [1]: 265 nM
IC50 [2]: 3.3 nM
IC50 [3]: 87.5 nM

CC(C)N1CCCN(c2nc(-c3ccc(NC(=O)Nc4ccc(C(=O)NCCN(C)C)cc4)cc3)nc(N3CCOCC3)n2)CC1 [Example 660, N-[2-(dimethylamino)ethyl]-4-{[(4-{4-[4-(1-methylethyl)-1,4-diazepan-1-yl]-6-morpholin-4-yl-1,3,5-triazin-2-yl}phenyl)carbamoyl]amino}benzamide]
IC50 [1]: 305 nM
IC50 [2]: 7.5 nM
IC50 [3]: 168 nM

O=C(Nc1ccc(-c2nc(N3CCOCC3)nc(N3C4CCC3COC4)n2)cc1)Nc1ccnnc1 [Example 483, 1-{4-[4-morpholin-4-yl-6-(3-oxa-8-azabicyclo[3.2.1]oct-8-yl)-1,3,5-triazin-2-yl]phenyl}-3-pyridazin-4-ylurea]
IC50 [1]: 1.55 nM
IC50 [2]: 28.5 nM
IC50 [3]: 150 nM

CC(=O)NC1CCN(c2nc(-c3ccc(NC(=O)Nc4ccncc4)cc3)nc(N3CCOCC3)n2)CC1 [Example 658, N-[1-(4-morpholin-4-yl-6-{4-[(pyridin-4-ylcarbamoyl)amino]phenyl}-1,3,5-triazin-2-yl)piperidin-4-yl]acetamide]
IC50 [1]: 20 nM
IC50 [2]: 41.5 nM
IC50 [3]: 265 nM

Cc1ccc(-c2nc(-c3ccc(NC(=O)Nc4ccc(N5CCC(N(C)C)CC5)cc4)cc3)nc(N3CCOCC3)n2)cc1 [Example 339, 1-{4-[4-(dimethylamino)piperidin-1-yl]phenyl}-3-{4-[4-(4-methylphenyl)-6-morpholin-4-yl-1,3,5-triazin-2-yl]phenyl}urea]
IC50 [1]: 90 nM and 80 nM
IC50 [2]: 71 nM
IC50 ([2]; listed as 531): 71.5 nM
IC50 [3]: 485 nM
IC50 ([3]; listed as 531): 484 nM

O=C(Nc1ccc(C(=O)O)cc1)Nc1ccc(-c2nc(N3CCCOCC3)nc(N3CCOCC3)n2)cc1 [Example 569, 4-[({4-[4-morpholin-4-yl-6-(1,4-oxazepan-4-yl)-1,3,5-triazin-2-yl]phenyl}carbamoyl)amino]benzoic acid]
IC50 [1]: 8 nM
IC50 [2]: 74.5 nM
IC50 [3]: 375 nM

O=C(Nc1ccc(C(=O)O)cc1)Nc1ccc(-c2nc(NS(=O)(=O)c3ccccc3)nc(N3CCOCC3)n2)cc1 [Example 790, 4-{[(4-{4-morpholin-4-yl-6-[(phenylsulfonyl)amino]-1,3,5-triazin-2-yl}phenyl)carbamoyl]amino}benzoic acid]
IC50 [1]: 65 nM
IC50 [2]: 244 nM
IC50 [3]: 593 nM

COC(CNc1nc(-c2ccc(NC(=O)Nc3cccnc3)cc2)nc(N2CCOCC2)n1)OC [Example 488, 1-(4-{4-[(2,2-dimethoxyethyl)amino]-6-morpholin-4-yl-1,3,5-triazin-2-yl}phenyl)-3-pyridin-3-ylurea]
IC50 [1]: 3.4 nM
IC50 [2]: 42 nM
IC50 [3]: 180 nM

C[C@H]1COCCN1c1nc(-c2ccc(NC(=O)Nc3ccc(C(=O)N4CC[C@H](N(C)C)C4)cc3)cc2)nc(N2C3CCC2COC3)n1 [Example 834, 1-(4-{[(3S)-3-(dimethylamino)pyrrolidin-1-yl]carbonyl}phenyl)-3-(4-{4-[(3S)-3-methylmorpholin-4-yl]-6-(3-oxa-8-azabicyclo[3.2.1]oct-8-yl)-1,3,5-triazin-2-yl}phenyl)urea]
IC50 [1]: 680 nM
IC50 [2]: 4.8 nM
IC50 [3]: 86.5 nM

CCCC1CCN(C(=O)c2ccc(NC(=O)Nc3ccc(-c4nc(N5CCOC[C@@H]5C)nc(N5CCOC[C@@H]5C)n4)cc3)cc2)CC1 [Example 636, 1-(4-{4,6-bis[(3S)-3-methylmorpholin-4-yl]-1,3,5-triazin-2-yl}phenyl)-3-{4-[(4-propylpiperidin-1-yl)carbonyl]phenyl}urea]
IC50 [1]: 27 nM
IC50 [2]: 231 nM
IC50 [3]: 468 nM

Cc1ccc(-c2nc(-c3ccc(NC(=O)Nc4cccc(C(=O)N5CCN(C)CC5)c4)cc3)nc(N3CCOCC3)n2)cc1 [Example 576, 1-{4-[4-(4-methylphenyl)-6-morpholin-4-yl-1,3,5-triazin-2-yl]phenyl}-3-{3-[(4-methylpiperazin-1-yl)carbonyl]phenyl}urea]
IC50 [1]: 140 nM
IC50 [2]: 761 nM
IC50 [3]: 2080 nM

O=C(Nc1ccc(C(=O)N2CCS(=O)(=O)CC2)cc1)Nc1ccc(-c2nc(N3CCOCC3)nc(N3C4CCC3COC4)n2)cc1 [Example 822, 1-{4-[(1,1-dioxidothiomorpholin-4-yl)carbonyl]phenyl}-3-{4-[4-morpholin-4-yl-6-(3-oxa-8-azabicyclo[3.2.1]oct-8-yl)-1,3,5-triazin-2-yl]phenyl}urea]
IC50 [1]: 0.335 nM
IC50 [2]: 3 nM
IC50 [3]: 31.5 nM

Cc1ccc(-c2nc(-c3ccc(NC(=O)Nc4cccc(C(=O)NCCN(C)C)c4)cc3)nc(N3CCOCC3)n2)cc1 [Example 583, N-[2-(dimethylamino)ethyl]-3-[({4-[4-(4-methylphenyl)-6-morpholin-4-yl-1,3,5-triazin-2-yl]phenyl}carbamoyl)amino]benzamide]
IC50 [1]: 48 nM
IC50 [2]: 123 nM
IC50 [3]: 718 nM

C[C@@H]1COCCN1c1nc(-c2ccc(NC(=O)Nc3ccc(C(=O)O)cc3)cc2)nc(N2CCOC[C@@H]2C)n1 [Example 626, 4-{[(4-{4-[(3R)-3-methylmorpholin-4-yl]-6-[(3S)-3-methylmorpholin-4-yl]-1,3,5-triazin-2-yl}phenyl)carbamoyl]amino}benzoic acid]
IC50 [1]: 1 nM
IC50 [2]: 59 nM
IC50 [3]: 208 nM

CCc1nc(-c2ccc(NC(=O)Nc3cccc(C(=O)N4CCN(C)CC4)c3)cc2)nc(N2CCOCC2)n1 [Example 589, 1-[4-(4-ethyl-6-morpholin-4-yl-1,3,5-triazin-2-yl)phenyl]-3-{3-[(4-methylpiperazin-1-yl)carbonyl]phenyl}urea]
IC50 [1]: 57 nM
IC50 [2]: 718 nM
IC50 [3]: 1620 nM
